Test results from article PMC6319706 (PLoS ONE, 2019).
Like-named read-outs stand apart in the source and are kept apart here.

What was measured:
[1] = biological target: T1, mouse adult α1β1εδ nAChR (Mus musculus, UniProt P02716+P04756+P09690+P20782); format: cell-based
[2] = biological target: human α7 nAChR (Homo sapiens, UniProt P36544); test: cell-based
[3] = biological target: mouse α3β2γ2 GABAAR (Mus musculus, UniProt P22723+P26049+P63137); test: cell-based; settings: for inhibition at 100 µM: read-out: inhibition of GABA-evoked currents
[4] = biological target: T1, mouse adult α1β1εδ nAChR; test: cell-based; format: cell-based
[5] = biological target: α1β3γ2 GABAAR (Mus musculus, UniProt P62812+P63080); format: binding
[6] = biological target: T2, mouse 5-HT3AR (Mus musculus, UniProt P23979); test: cell-based; format: cell-based
[7] = system: end-plate muscle type nAChRs; settings: cited from earlier work
[8] = biological target: T2, mouse 5-HT3AR; settings: cited from earlier work
[9] = system: human 5-HT3AR; settings: cited from earlier work
[10] = system: GABAAR; settings: cited from earlier work

Compound | effect on maximal acetylcholine response (in words) [1] | IC50 [2] | nH (Hill slope) [2] | inhibition at 100 µM [3] | IC50 [4] | fold less potent than BBIQA1 and d-TC [4] | nH (Hill slope) [4] | competition with Alexa Fluor 546 αCtx binding (in words) [5] | IC50 [6] | fold less active than d-TC [6] | nH (Hill slope) [6] | fold higher affinity of orthosteric α/ε (or α/γ) site than orthosteric α/δ site [7] | inhibition of GABA-evoked currents [3] | IC50 [8] | IC50 [9] | inhibition of GABAAR (in words) [10]
α-bungarotoxin [αBgt, reference compound] | did not observe any reduction in the maximal amplitude | – | – | – | – | – | – | – | – | – | – | – | – | – | – | –
COc1ccc2cc1Oc1cc3c(cc1O)CCN[C@H]3Cc1ccc(cc1)Oc1c(O)c(OC)cc3c1[C@@H](C2)[N+](C)(C)CC3 [BBIQA2] | reduces the maximal acetylcholine response | 3.08 µM | -0.94 ± 0.29 | 40 to 50% | 1.75 µM | ~ 2 fold | -1.04 ± 0.21 | comparable affinities | 1.97 µM | 87 fold | -1.83 ± 0.01 | – | – | – | – | –
COc1cc2c(cc1O)[C@@H](Cc1ccc(O)c(Oc3cc4c(cc3OC)CCN[C@H]4Cc3ccc(O)cc3)c1)NCC2 [BBIQA1] | reduces the maximal acetylcholine response | 1.7 µM | -0.83 ± 0.17 | 40 to 50% | 0.75 µM | – | -0.96 ± 0.16 | comparable affinities | 0.119 µM | 5 fold | -1.06 ± 0.09 | – | – | – | – | –
COc1cc2c3cc1Oc1cc(ccc1O)C[C@@H]1c4c(cc(OC)c(O)c4Oc4ccc(cc4)C[C@@H]3N(C)CC2)CC[N+]1(C)C [d-TC, d-tubocurarine, reference compound] | reduces the maximal acetylcholine response | 2.03 µM | -1.39 ± 0.21 | 90% | 0.81 µM | – | -1.87 ± 0.41 | comparable affinities | 0.0226 µM | – | -1.19 ± 0.21 | 100 fold | almost completely inhibited | 0.0114 to 0.013 µM | 1.8 µM | inhibits GABAAR
